How the values were obtained:
Conditions in all cases: treatment: drug alone; 5 days
[1] = system: SN12C; assay: minimum viability across doses, drug alone, relative to DMSO (fraction); higher = less growth inhibition
Experimental: (§1)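 Primary HTS: 8 RCC cell lines treated with 8 doses (up to 10 uM) of each library drug alone for 5 days; viability read by CellTiter-Glo and normalised to DMSO. GI50 was fitted with XLfit (4-parameter), AUC is the area under the dose-response curve, and minimum viability is the lowest fraction of DMSO viability across doses.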

[2] = system: A498; assay: as above
Experimental: as §1

[3] = system: TK-10; assay: as above
Experimental: as §1

[4] = system: CAKI-1; assay: as above
Experimental: as §1

[5] = system: 769-P; assay: as above
Experimental: as §1

[6] = system: ACHN; assay: as above
Experimental: as §1

[7] = system: 786-O; assay: as above
Experimental: as §1

[8] = system: UO-31; assay: as above
Experimental: as §1

[9] = system: SN12C; assay: GI50, drug alone; higher = less potent
Experimental: as §1

[10] = system: A498; assay: GI50, drug alone; higher = less potent
Experimental: as §1

[11] = system: TK-10; assay: GI50, drug alone; higher = less potent
Experimental: as §1

[12] = system: CAKI-1; assay: GI50, drug alone; higher = less potent
Experimental: as §1

[13] = system: 769-P; assay: GI50, drug alone; higher = less potent
Experimental: as §1

[14] = system: ACHN; assay: GI50, drug alone; higher = less potent
Experimental: as §1

[15] = system: 786-O; assay: GI50, drug alone; higher = less potent
Experimental: as §1

[16] = system: UO-31; assay: GI50, drug alone; higher = less potent
Experimental: as §1

[17] = system: SN12C; assay: AUC of dose-response viability curve, drug alone (arbitrary (AUC of normalised viability)); higher = less growth inhibition
Experimental: as §1

[18] = system: A498; assay: as above
Experimental: as §1

[19] = system: TK-10; assay: as above
Experimental: as §1

[20] = system: CAKI-1; assay: as above
Experimental: as §1

[21] = system: 769-P; assay: as above
Experimental: as §1

[22] = system: ACHN; assay: as above
Experimental: as §1

[23] = system: 786-O; assay: as above
Experimental: as §1

[24] = system: UO-31; assay: as above
Experimental: as §1

GI50, drug alone [14] [µM] | GI50, drug alone [15] [nM] | SMILES | minimum viability across doses [1] | minimum viability across doses [2] | minimum viability across doses [3] | minimum viability across doses [4] | minimum viability across doses [5] | minimum viability across doses [6] | minimum viability across doses [7] | minimum viability across doses [8] | GI50, drug alone [9] [µM] | GI50, drug alone [10] [µM] | GI50, drug alone [11] [µM] | GI50, drug alone [12] [µM] | GI50, drug alone [13] [µM] | GI50, drug alone [16] [µM] | AUC of dose-response viability curve [17] | AUC of dose-response viability curve [18] | AUC of dose-response viability curve [19] | AUC of dose-response viability curve [20] | AUC of dose-response viability curve [21] | AUC of dose-response viability curve [22] | AUC of dose-response viability curve [23] | AUC of dose-response viability curve [24]
0.662 | 1900 | Cc1cnc(Nc2ccc(OCCN3CCCC3)cc2)nc1Nc1cccc(S(=O)(=O)NC(C)(C)C)c1 | 0.00707 | 0.0772 | 0.00422 | 0.00962 | 0.0319 | 0.00347 | 0.00721 | 0.013 | 2.31 | 5.64 | 0.758 | 1.03 | 3.4 | 2.74 | 2.71 | 3.49 | 2.19 | 2.54 | 3.09 | 2.25 | 2.76 | 3.79
> 10 | > 10000 | Cc1ccc(NC(=O)c2cccc(N(C)C)c2)cc1NC(=O)c1ccc(O)cc1 | 0.845 | 0.864 | 0.677 | 0.984 | 0.92 | 0.816 | 0.535 | 0.895 | > 10 | > 10 | > 10 | > 10 | > 10 | > 10 | 3.31 | 4.56 | 2.59 | 3.64 | 3.39 | 3.32 | 2.5 | 4.13
0.0587 | 41.4 | CNC(=O)Nc1ccc(-c2nc(N3CC4CCC(C3)O4)c3cnn(C4CCC5(CC4)OCCO5)c3n2)cc1 | 0.126 | 0.09 | 0.0905 | 0.042 | 0.101 | 0.0487 | 0.00279 | 0.00242 | 0.0971 | 0.23 | 0.0812 | 0.0567 | 0.122 | 0.0343 | 1.64 | 2.28 | 1.52 | 1.31 | 1.66 | 1.4 | 1.25 | 1.01
5.79 | 2470 | Nc1nc(N)c2nc(-c3cccc(O)c3)cnc2n1 | 0.254 | 0.252 | 0.32 | 0.275 | 0.971 | 0.35 | 0.0664 | 0.588 | 3.88 | 9.22 | 5.11 | 6.29 | > 10 | > 10 | 2.97 | 3.31 | 2.98 | 3.43 | 3.59 | 3.02 | 2.45 | 4.59
1.87 | 1110 | Nc1ccc(C(=O)Nc2cccc(-c3nc(N4CCOCC4)c4oc5ncccc5c4n3)c2)cn1 | 0.46 | 0.527 | 0.11 | 0.153 | 0.0884 | 0.207 | 0.00412 | 0.0163 | 8.23 | > 10 | 1.7 | 1.19 | 3.14 | 8.08 | 3 | 4.39 | 2.64 | 2.63 | 3.04 | 2.63 | 2.4 | 5.57
> 10 | > 10000 | C[C@@H]1CCN(C(=O)CC#N)C[C@@H]1N(C)c1ncnc2[nH]ccc12 | 0.935 | 0.909 | 0.806 | 0.98 | 0.988 | 0.893 | 0.804 | 0.876 | > 10 | > 10 | > 10 | > 10 | > 10 | > 10 | 3.63 | 3.8 | 3.14 | 3.66 | 3.63 | 3.3 | 3.54 | 4.6
3.42 | 2000 | COc1cc2c(Nc3ccc(NC(=O)c4ccccc4)cc3)ncnc2cc1OCCCN1CCOCC1 | 0.537 | 0.722 | 0.243 | 0.108 | 0.24 | 0.152 | 0.00931 | 0.175 | > 10 | > 10 | 4.2 | 2.63 | 5.72 | 9.01 | 2.89 | 4.49 | 2.86 | 3.03 | 3.12 | 2.57 | 2.52 | 4.2
> 10 | > 10000 | C[C@@H](N)[C@H]1CC[C@H](C(=O)Nc2ccncc2)CC1.Cl.Cl | 0.909 | 0.87 | 0.887 | 0.859 | 0.895 | 0.908 | 0.802 | 0.96 | > 10 | > 10 | > 10 | > 10 | > 10 | > 10 | 3.55 | 3.58 | 3.46 | 3.45 | 3.37 | 3.73 | 3.36 | 4.59
> 10 | > 10000 | CC1CCN(C(=O)CC#N)C[C@@H]1N(C)c1ncnc2[nH]ccc12.O=C(O)CC(O)(CC(=O)O)C(=O)O (stereo in doubt) | 0.854 | 0.817 | 0.797 | 0.918 | 0.938 | 0.771 | 0.614 | 0.897 | > 10 | > 10 | > 10 | > 10 | > 10 | > 10 | 3.23 | 3.54 | 3.16 | 3.73 | 3.66 | 3.18 | 2.72 | 4.05
> 10 | > 10000 | O=C1NC(=O)C(=Cc2ccc(-c3ccc(F)cc3)o2)S1 (stereo in doubt) | 0.82 | 0.852 | 0.81 | 0.882 | 0.859 | 0.871 | 0.566 | 0.311 | > 10 | > 10 | > 10 | > 10 | > 10 | 7.95 | 3.23 | 3.71 | 3.07 | 3.34 | 3.33 | 3.47 | 2.4 | 3.29
0.559 | < 3 | CO[C@H]1C[C@H]2CC[C@@H](C)[C@@](O)(O2)C(=O)C(=O)N2CCCC[C@H]2C(=O)O[C@H]([C@H](C)C[C@@H]2CC[C@H](OP(C)(C)=O)[C@H](OC)C2)CC(=O)[C@H](C)/C=C(\C)[C@@H](O)[C@@H](OC)C(=O)[C@H](C)C[C@H](C)/C=C/C=C/C=C/1C (stereo in doubt) [Deforolimus (Ridaforolimus)] | 0.443 | 0.636 | 0.542 | 0.456 | 0.607 | 0.409 | 0.271 | 0.0878 | 0.454 | > 10 | > 10 | 1.07 | > 10 | 0.00775 | 2.23 | 2.6 | 2.42 | 2.1 | 2.66 | 1.98 | 1.24 | 0.965
0.386 | < 3 | CO[C@H]1CC2CC[C@@H](C)[C@@](O)(O2)C(=O)C(=O)N2CCCC[C@H]2C(=O)O[C@H]([C@H](C)C[C@@H]2CCC(OC(=O)C(C)(CO)CO)[C@H](OC)C2)CC(=O)[C@H](C)/C=C(\C)[C@@H](O)[C@@H](OC)C(=O)[C@H](C)C[C@H](C)/C=C/C=C/C=C/1C (stereo in doubt) [Temsirolimus (Torisel)] | 0.578 | 0.641 | 0.486 | 0.433 | 0.62 | 0.407 | 0.294 | 0.299 | > 10 | > 10 | 3.9 | 1.27 | > 10 | 0.0803 | 2.31 | 2.57 | 2.39 | 2.15 | 2.8 | 2.03 | 1.31 | 1.58
> 10 | > 10000 | Cn1cnc(N)c2ncnc1-2 [3-Methyladenine] | 0.961 | 1.04 | 0.696 | 0.991 | 0.947 | 0.879 | 0.618 | 1.12 | > 10 | > 10 | > 10 | > 10 | > 10 | > 10 | 3.65 | 3.89 | 2.77 | 3.74 | 3.6 | 3.25 | 2.67 | 4.92
> 10 | 5720 | Cc1nc(NC(=O)N2CCC[C@H]2C(N)=O)sc1-c1csc(C(C)(C)C)n1 [A66] | 0.659 | 0.787 | 0.631 | 0.805 | 0.823 | 0.803 | 0.418 | 0.757 | > 10 | > 10 | > 10 | > 10 | > 10 | > 10 | 2.94 | 3.34 | 2.93 | 3.36 | 3.33 | 3.42 | 2.57 | 3.47
> 10 | < 3 | CC1(C)CCC(CN2CCN(c3ccc(C(=O)NS(=O)(=O)c4ccc(NCC5CCOCC5)c([N+](=O)[O-])c4)c(Oc4cnc5[nH]ccc5c4)c3)CC2)=C(c2ccc(Cl)cc2)C1 [ABT-199 (GDC-0199 )] | 0.821 | 0.915 | 0.617 | 0.846 | 0.88 | 0.847 | 0.442 | 1.02 | > 10 | > 10 | > 10 | > 10 | > 10 | > 10 | 3.19 | 3.73 | 3.06 | 3.28 | 3.47 | 3.16 | 2.19 | 3.98
2.28 | 181 | CC1(C)CCC(c2ccc(Cl)cc2)=C(CN2CCN(c3ccc(C(=O)NS(=O)(=O)c4ccc(N[C@H](CCN5CCOCC5)CSc5ccccc5)c(S(=O)(=O)C(F)(F)F)c4)cc3)CC2)C1 [ABT-263 (Navitoclax)] | 0.524 | 0.622 | 0.163 | 0.603 | 0.0787 | 0.0597 | 0.00566 | 0.00527 | > 10 | > 10 | 1.07 | > 10 | 3.17 | 0.784 | 3.21 | 3 | 2.39 | 3.41 | 3.02 | 2.51 | 1.72 | 2.31
5.69 | 501 | CN(C)CC[C@H](CSc1ccccc1)Nc1ccc(S(=O)(=O)NC(=O)c2ccc(N3CCN(Cc4ccccc4-c4ccc(Cl)cc4)CC3)cc2)cc1[N+](=O)[O-] [ABT-737] | 0.625 | 0.1 | 0.253 | 0.952 | 0.305 | 0.206 | 0.00151 | 0.00414 | > 10 | 5.36 | 4.57 | > 10 | 9.18 | 3.08 | 3.25 | 3.25 | 2.43 | 3.76 | 3.47 | 2.88 | 1.66 | 4.03

Reference: the supplement of paper PMC8149375
